Test results taken from ChEMBL document CHEMBL5729720, “Pyridine and pyrazine derivatives as preferential cannabinoid 2 agonists” (2023).
pKi: −log10 of the molar value.

Target: Cannabinoid receptor 2 (Homo sapiens, UniProt P34972)
Assay: Radioligand Binding Assay: The affinity of the compounds of the invention for cannabinoid CB1 receptors was determined using recommended amounts of membrane preparations (PerkinElmer) of human embryonic kidney (HEK) cells expressing the human CNR1 or CNR2 receptors in conjunction with 1.5 or 2.6 nM [3H]-CP-55,940 (Perkin Elmer) as radioligand, respectively. Binding was performed in binding buffer (50 mM Tris, 5 mM MgCl2, 2.5 mM EDTA, and 0.5% (wt/vol) fatty acid free BSA, pH 7.4 for CB1 receptor and 50 mM Tris, 5 mM MgCl2, 2.5 mM EGTA, and 0.1% (wt/vol) fatty acid free BSA, pH 7.4 for CB2 receptor) in a total volume of 0.2 ml for 1 h at 30° C. shaking. The reaction was terminated by rapid filtration through microfiltration plates coated with 0.5% polyethylenimine (UniFilter GFB filter plate; Packard). Bound radioactivity was analyzed for Ki using nonlinear regression analysis (Activity Base, ID Business Solution, Limited), with the Kd values for [3H]CP55,940 determined from saturation experiments. The compounds of formula (I) show an excellent affinity for the CB2 receptor.

Chain of Cannabinoid receptor 2 (P34972 whole entry): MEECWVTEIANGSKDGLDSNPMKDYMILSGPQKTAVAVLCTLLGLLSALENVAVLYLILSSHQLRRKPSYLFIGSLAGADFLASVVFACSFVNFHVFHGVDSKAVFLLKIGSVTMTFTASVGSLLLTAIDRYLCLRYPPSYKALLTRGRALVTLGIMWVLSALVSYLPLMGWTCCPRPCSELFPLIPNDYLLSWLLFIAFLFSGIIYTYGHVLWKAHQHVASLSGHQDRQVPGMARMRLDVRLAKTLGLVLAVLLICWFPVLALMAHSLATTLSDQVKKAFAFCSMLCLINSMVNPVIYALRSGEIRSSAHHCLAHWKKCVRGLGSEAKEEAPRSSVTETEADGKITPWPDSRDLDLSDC

| Compound | pKi |
| --- | --- |
| CCC(CC)(NC(=O)c1ccc(N2CC(OC)C2)c(OC[C@H]2C[C@@H]2CO)n1)C(=O)OCCCCF | 8.74 |
| CCOC(=O)C(CC)(CC)NC(=O)c1ccc(N2CC(OC)C2)c(OC[C@H]2C[C@@H]2COCF)n1 (mixture of isomers) | 8.74 |
| CCOC(=O)C(CC)(CC)NC(=O)c1ccc(N2CC(OC)C2)c(OC[C@H]2C[C@@H]2COCCF)n1 (mixture of isomers) | 8.43 |
